Values joined by “and” are separate entries in the source; they are usually repeats but may differ in a detail not shown here. Equal values may be shown once. Active and inactive are the calls of the source.
Columns and labels:
HEK293 [1] = experiment: SAR analysis of compounds that are cytotoxic to HEK293 - Set 2. [Related pubchem assays (depositor defined):AID1575, AID1578, AID1849, AID2001, AID2333, AID2334, AID2335, AID2337, AID2800]; assay type: functional, cell-based; settings: Homo sapiens
[2] = molecular target: T1, Nucleotide-binding oligomerization domain-containing protein 1 (Homo sapiens, UniProt Q9Y239); experiment: blockers of NOD1 pathway activity – revised, SAR follow-up (AID 2333); assay type: functional
T1 sequence (Q9Y239 whole entry): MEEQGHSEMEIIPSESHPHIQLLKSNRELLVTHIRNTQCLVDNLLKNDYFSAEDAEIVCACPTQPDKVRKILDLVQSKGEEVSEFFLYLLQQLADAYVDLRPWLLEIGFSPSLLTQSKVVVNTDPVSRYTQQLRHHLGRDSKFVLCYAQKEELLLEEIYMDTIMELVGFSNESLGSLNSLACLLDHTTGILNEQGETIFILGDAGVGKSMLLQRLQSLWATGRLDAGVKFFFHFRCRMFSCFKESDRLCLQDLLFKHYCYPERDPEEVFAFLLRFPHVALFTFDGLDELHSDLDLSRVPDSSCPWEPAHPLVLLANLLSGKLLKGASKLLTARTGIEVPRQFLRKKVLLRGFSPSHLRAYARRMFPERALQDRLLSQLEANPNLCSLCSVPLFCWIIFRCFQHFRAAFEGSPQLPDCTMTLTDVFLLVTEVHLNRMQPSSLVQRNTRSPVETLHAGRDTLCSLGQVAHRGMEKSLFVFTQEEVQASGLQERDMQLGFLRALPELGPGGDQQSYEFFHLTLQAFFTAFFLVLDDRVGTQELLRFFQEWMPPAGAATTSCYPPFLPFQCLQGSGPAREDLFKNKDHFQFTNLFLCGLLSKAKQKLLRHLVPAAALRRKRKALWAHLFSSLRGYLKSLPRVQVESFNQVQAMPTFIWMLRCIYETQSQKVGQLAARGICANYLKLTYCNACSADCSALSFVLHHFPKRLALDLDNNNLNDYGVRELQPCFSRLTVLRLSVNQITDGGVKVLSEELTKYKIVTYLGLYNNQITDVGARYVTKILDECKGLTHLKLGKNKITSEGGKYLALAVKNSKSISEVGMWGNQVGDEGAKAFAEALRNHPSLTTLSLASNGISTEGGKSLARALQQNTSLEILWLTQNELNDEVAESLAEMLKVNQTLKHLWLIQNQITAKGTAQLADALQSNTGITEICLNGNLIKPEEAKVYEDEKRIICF

HEK293 [3] = experiment: SAR analysis of compounds that are cytotoxic to HEK293 - Set 3. [Related pubchem assays (depositor defined):AID1575, AID1578, AID1848, AID1849, AID2001, AID2333, AID2334, AID2335, AID2337, AID2469]; assay type: functional, cell-based; settings: Homo sapiens
Tumor necrosis factor [4] = molecular target: T2, Tumor necrosis factor (Homo sapiens, UniProt P01375); experiment: analog potency on TNFa NF-kB signaling – cell-based, set 3, SAR follow-up (AID 2801); assay type: functional
T2 sequence (P01375 whole entry, the tested form may be a part): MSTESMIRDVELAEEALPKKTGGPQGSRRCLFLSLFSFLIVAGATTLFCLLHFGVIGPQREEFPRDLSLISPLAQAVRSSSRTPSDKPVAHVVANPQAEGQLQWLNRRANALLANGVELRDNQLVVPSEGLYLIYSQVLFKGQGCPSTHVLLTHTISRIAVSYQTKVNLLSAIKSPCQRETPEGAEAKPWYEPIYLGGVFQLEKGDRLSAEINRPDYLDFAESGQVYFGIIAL

[5] = molecular target: T3, Nucleotide-binding oligomerization domain-containing protein 2 (Homo sapiens, UniProt Q9HC29); experiment: inhibition of NOD2 signaling – set 2, SAR follow-up (AID 2475); assay type: functional
T3 sequence (Q9HC29 whole entry, the tested form may be a part): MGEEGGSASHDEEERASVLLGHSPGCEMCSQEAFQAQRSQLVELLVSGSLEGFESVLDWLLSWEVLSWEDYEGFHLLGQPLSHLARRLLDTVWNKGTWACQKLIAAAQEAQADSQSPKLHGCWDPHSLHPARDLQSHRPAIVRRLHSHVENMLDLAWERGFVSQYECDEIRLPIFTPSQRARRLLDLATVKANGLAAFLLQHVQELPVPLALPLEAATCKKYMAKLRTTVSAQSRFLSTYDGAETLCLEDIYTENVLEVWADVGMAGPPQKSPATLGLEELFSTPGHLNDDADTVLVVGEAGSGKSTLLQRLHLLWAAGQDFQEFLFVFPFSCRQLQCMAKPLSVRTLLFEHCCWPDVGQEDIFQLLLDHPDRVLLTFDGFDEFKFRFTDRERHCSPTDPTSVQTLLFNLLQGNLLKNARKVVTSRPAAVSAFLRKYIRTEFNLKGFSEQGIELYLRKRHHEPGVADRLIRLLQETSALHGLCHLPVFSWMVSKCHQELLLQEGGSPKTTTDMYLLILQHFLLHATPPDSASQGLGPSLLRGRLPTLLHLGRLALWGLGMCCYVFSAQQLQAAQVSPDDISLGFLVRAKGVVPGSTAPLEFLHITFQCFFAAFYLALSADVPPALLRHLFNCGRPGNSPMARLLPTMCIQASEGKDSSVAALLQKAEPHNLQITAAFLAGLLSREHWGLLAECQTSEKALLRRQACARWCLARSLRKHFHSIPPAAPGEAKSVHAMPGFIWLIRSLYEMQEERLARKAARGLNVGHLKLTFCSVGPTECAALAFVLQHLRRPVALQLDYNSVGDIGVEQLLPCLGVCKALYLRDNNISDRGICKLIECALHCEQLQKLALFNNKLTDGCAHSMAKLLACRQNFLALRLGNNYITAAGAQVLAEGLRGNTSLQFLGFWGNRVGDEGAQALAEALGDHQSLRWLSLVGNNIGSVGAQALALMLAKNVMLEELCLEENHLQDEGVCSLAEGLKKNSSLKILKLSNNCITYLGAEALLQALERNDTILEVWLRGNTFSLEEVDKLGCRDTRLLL

[6] = molecular target: T3, Nucleotide-binding oligomerization domain-containing protein 2; experiment: inhibition of MDP-driven NOD2 NF-kB reporter – cell-based, set 3, SAR follow-up (AID 2799); assay type: functional
[7] = molecular target: T1, Nucleotide-binding oligomerization domain-containing protein 1; experiment: SAR analysis of NF-kappaB dependent luciferase using DAP as an inducer - Set 2. [Related pubchem assays (depositor defined):AID1566, AID1575, AID1578, AID1579, AID1849, AID1852, AID2264]; assay type: functional
[8] = molecular target: T3, Nucleotide-binding oligomerization domain-containing protein 2; experiment: PubChem AID 2334; assay type: functional
HEK293 [9] = experiment: inhibition of NOD1-driven NF-kB reporter – cell-based, luminescence, uHTS, primary screen (AID 1578); assay type: functional; settings: Homo sapiens
Interleukin-8 [10] = molecular target: T4, Interleukin-8 (Homo sapiens, UniProt P10145); experiment: SAR analysis of Tumor necrosis factor alpha (TNF-alpha) induced IL-8 secretion in MCF-7/NOD1 cells - Set 2. [Related pubchem assays (depositor defined):AID1575, AID2250, AID2260]; assay type: functional, cell-based
T4 sequence (P10145 whole entry): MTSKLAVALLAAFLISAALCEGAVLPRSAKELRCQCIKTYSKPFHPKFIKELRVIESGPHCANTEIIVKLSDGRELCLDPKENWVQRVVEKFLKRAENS

HEK293 [11] = experiment: NOD2 signaling inhibitors in MDP-stimulated cells, cell-based, uHTS, luminescence (AID 2001); assay type: functional; settings: Homo sapiens
Interleukin-8 [12] = molecular target: T4, Interleukin-8; experiment: SAR analysis of GM-Tri-DAP induced IL-8 secretion in MCF-7/NOD1 cells - Set 2. [Related pubchem assays (depositor defined):AID1575, AID1578, AID2333]; assay type: functional, cell-based
HEK293 [13] = experiment: cells; settings: Homo sapiens
[14] = molecular target: T1, Nucleotide-binding oligomerization domain-containing protein 1; experiment: SAR analysis of compounds that inhibit NOD1 - Set 3. [Related pubchem assays (depositor defined):AID1566, AID1575, AID1578, AID1849, AID1852, AID2333, AID2335, AID2466]; assay type: functional
HEK293 [15] = experiment: cells; assay type: functional, cell-based; settings: Homo sapiens
Tumor necrosis factor [16] = molecular target: T2, Tumor necrosis factor; experiment: analog potency on TNFa NF-kB signaling – cell-based, revised, SAR follow-up (AID 2337); assay type: functional
HEK293 [17] = experiment: cells; assay type: functional, cell-based; settings: Homo sapiens; remark: listed apart in the source
Hexokinase-1 = molecular target: T5, Hexokinase-1 (Homo sapiens, UniProt P19367); experiment: HK1 enzyme activation by HKDC1 hits – biochemical, selectivity assay for HKDC1 activator project, dose response (AID 504762); assay type: functional
T5 sequence (P19367 whole entry): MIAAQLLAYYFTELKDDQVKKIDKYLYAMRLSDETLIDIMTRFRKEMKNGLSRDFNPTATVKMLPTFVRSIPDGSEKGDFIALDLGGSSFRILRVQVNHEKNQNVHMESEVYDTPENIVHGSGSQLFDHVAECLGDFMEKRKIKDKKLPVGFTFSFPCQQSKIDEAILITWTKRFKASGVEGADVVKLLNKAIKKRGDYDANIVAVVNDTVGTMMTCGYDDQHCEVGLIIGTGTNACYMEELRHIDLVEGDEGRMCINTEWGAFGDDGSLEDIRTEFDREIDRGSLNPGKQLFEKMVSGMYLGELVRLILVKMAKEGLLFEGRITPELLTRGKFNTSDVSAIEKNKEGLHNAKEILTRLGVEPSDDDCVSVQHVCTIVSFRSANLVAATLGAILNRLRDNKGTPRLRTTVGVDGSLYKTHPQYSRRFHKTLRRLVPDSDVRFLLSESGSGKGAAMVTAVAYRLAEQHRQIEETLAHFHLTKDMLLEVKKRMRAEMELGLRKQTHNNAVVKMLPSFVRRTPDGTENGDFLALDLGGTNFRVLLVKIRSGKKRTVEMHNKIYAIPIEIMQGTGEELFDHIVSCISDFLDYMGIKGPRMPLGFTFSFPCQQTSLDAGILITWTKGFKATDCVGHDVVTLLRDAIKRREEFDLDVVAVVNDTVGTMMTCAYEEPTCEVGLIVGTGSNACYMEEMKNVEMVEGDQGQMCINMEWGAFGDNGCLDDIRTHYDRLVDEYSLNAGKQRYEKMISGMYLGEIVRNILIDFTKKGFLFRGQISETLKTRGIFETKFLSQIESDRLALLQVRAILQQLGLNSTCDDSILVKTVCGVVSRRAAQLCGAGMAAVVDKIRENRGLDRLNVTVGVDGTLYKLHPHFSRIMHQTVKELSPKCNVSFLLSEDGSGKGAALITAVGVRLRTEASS

[18] = molecular target: T6, Calpain-2 catalytic subunit (Sus scrofa, UniProt P43367); experiment: m-calpain protease blockers, concentration series – biochemical, fluorogenic peptide substrate, dose response (AID 1420); assay type: functional
T6 sequence (P43367 whole entry): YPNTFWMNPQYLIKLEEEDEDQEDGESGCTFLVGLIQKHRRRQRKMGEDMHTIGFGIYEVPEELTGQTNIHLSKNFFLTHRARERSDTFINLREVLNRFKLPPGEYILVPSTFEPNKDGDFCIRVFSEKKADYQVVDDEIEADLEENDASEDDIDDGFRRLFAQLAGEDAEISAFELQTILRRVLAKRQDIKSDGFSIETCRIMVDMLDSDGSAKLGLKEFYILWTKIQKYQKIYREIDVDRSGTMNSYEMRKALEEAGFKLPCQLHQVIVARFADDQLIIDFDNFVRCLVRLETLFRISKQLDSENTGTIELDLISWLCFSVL

[19] = molecular target: T7, Lysosomal acid glucosylceramidase (Homo sapiens, UniProt P04062); experiment: Dose response cell-based high throughput screening assay to identify enhancers of beta-glucosidase activity. [Related pubchem assays: 784 ]; assay type: functional
T7 sequence (P04062 whole entry): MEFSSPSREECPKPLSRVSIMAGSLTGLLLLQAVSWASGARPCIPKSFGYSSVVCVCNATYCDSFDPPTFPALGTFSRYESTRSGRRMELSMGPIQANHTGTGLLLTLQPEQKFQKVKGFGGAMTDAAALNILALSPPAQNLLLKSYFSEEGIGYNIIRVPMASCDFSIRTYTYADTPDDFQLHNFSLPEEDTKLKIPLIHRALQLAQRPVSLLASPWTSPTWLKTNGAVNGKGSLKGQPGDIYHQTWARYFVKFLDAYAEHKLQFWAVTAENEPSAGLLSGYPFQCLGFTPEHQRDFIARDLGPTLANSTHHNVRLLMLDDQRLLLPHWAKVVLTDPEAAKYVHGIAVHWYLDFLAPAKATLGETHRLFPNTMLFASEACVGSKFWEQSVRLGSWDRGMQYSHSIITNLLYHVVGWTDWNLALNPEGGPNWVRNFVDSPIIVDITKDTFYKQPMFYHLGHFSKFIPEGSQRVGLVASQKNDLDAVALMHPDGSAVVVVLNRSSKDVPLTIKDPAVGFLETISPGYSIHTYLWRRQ

Hexokinase HKDC1 = molecular target: T8, Hexokinase HKDC1 (Homo sapiens, UniProt Q2TB90); experiment: activation of HKDC1 glucose phosphorylation – biochemical, W721R variant, dose response (AID 504730); assay type: functional
T8 sequence (Q2TB90 whole entry): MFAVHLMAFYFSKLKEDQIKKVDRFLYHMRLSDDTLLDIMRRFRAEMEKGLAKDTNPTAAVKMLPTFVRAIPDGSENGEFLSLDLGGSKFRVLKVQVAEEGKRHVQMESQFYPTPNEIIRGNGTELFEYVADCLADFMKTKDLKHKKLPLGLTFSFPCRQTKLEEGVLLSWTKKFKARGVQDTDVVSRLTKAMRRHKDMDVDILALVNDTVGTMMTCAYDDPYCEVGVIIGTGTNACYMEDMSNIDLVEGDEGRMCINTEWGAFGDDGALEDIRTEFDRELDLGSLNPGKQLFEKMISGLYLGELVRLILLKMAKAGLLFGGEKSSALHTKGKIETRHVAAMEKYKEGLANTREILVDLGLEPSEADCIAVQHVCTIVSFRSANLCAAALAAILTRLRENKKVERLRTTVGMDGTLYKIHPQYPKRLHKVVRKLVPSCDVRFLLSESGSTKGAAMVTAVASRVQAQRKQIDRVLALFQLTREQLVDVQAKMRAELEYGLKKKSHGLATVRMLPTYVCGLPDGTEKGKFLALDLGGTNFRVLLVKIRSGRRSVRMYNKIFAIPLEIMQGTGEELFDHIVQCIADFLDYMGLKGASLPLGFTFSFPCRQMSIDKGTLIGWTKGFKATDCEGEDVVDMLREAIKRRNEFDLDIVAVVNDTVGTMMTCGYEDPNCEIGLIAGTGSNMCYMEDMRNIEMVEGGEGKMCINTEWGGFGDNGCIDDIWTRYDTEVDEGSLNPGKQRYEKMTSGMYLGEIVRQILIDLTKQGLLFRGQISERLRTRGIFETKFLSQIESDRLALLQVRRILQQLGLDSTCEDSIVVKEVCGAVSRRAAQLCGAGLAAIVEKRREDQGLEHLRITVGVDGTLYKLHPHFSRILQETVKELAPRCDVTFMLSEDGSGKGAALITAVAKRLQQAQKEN

Q: For `C/C=C/Cn1c(SCCCc2ccccc2)nc2c1c(=O)[nH]c(=O)n2C`, which IC50 (HEK293 [1]) is on record?
A: > 20 µM (inactive)

Q: What about the IC50 [2] of the same molecule?
A: 1.81 µM (active)

Q: What about the IC50 (HEK293 [3]) of the same molecule?
A: > 20 µM (inactive)

Q: What about the IC50 (Tumor necrosis factor [4]) of the same molecule?
A: 18.2 µM (active) and 18.6 µM (inactive)

Q: What about the IC50 [5] of the same molecule?
A: 4.18 µM (active)

Q: And the IC50 [6]?
A: 7.97 µM (active) and 10.6 µM (active)

Q: What about the IC50 [7] of the same molecule?
A: 14.4 µM (active)

Q: And the IC50 [8]?
A: 16.9 µM (active)

Q: And the EC50 (HEK293 [9])?
A: 6.37 µM (active)

Q: What about the IC50 (Interleukin-8 [10]) of the same molecule?
A: > 25 µM (inactive)

Q: What about the IC50 (HEK293 [11]) of the same molecule?
A: 16.2 µM (inactive)

Q: And the IC50 (Interleukin-8 [12])?
A: 3.43 µM (active)

Q: What about the IC50 (HEK293 [13]) of the same molecule?
A: > 20 µM (inactive)

Q: And the IC50 [14]?
A: 1.36 µM (active)

Q: And the IC50 (HEK293 [15])?
A: > 20 µM (inactive)

Q: And the IC50 (Tumor necrosis factor [16])?
A: 62.7 µM (inactive)

Q: And the IC50 (HEK293 [17])?
A: > 20 µM (inactive)

Q: Which EC50 (Hexokinase-1) does the source give for `O=S(=O)(NC1c2cccc3cccc(c23)C1N1CCNCC1)c1ccccc1` (stereo unspecified) here?
A: 13.6 µM (active)

Q: And the IC50 [18]?
A: < 0.4 µM (not active)

Q: And the EC50 [19]?
A: 1.66 µM (active)

Q: What about the EC50 (Hexokinase HKDC1) of the same molecule?
A: 11.7 µM (active)
